Laboratory results as given in article PMC8213057, “Targeting ALK2: An Open Science Approach to Developing Therapeutics for the Treatment of Diffuse Intrinsic Pontine Glioma” (Journal of Medicinal Chemistry, 2020).
Where “and” joins values, the source holds several entries; their conditions need not be identical. Identical values can stand only once.

How the values were obtained:
[1] = biological target: MNK1 (Homo sapiens, UniProt Q9BUB5); conditions: 1 μM; Run 1, Run 2
[2] = biological target: WNK3 (Homo sapiens, UniProt Q9BYP7); conditions: 1 μM; Run 1, Run 2
[3] = biological target: T1, ERN2/IRE2 (Homo sapiens, UniProt Q76MJ5); conditions: 1 μM; Run 1, Run 2
[4] = biological target: FLT4/VEGFR3 (Homo sapiens, UniProt P35916); conditions: 1 μM; Run 1, Run 2
[5] = biological target: PKAcg (Homo sapiens, UniProt P22612); conditions: 1 μM; Run 1, Run 2
[6] = biological target: MSK2/RPS6KA4 (Homo sapiens, UniProt O75676); conditions: 1 μM; Run 1, Run 2
[7] = test system: HGK/MAP4K4
[8] = biological target: T1, ERN2/IRE2; test: biochemical; conditions: read-out: % enzyme activity, 1 μM; Run 1, Run 2
[9] = biological target: CYP2D6
[10] = biological target: p70S6K/RPS6KB1 (Homo sapiens, UniProt P23443); test: biochemical; conditions: read-out: % enzyme activity, 1 μM; Run 1, Run 2
[11] = biological target: T2, SNARK/NUAK2 (Homo sapiens, UniProt Q9H093); conditions: 1 μM; Run 1, Run 2
T2 sequence (Q9H093 1-628): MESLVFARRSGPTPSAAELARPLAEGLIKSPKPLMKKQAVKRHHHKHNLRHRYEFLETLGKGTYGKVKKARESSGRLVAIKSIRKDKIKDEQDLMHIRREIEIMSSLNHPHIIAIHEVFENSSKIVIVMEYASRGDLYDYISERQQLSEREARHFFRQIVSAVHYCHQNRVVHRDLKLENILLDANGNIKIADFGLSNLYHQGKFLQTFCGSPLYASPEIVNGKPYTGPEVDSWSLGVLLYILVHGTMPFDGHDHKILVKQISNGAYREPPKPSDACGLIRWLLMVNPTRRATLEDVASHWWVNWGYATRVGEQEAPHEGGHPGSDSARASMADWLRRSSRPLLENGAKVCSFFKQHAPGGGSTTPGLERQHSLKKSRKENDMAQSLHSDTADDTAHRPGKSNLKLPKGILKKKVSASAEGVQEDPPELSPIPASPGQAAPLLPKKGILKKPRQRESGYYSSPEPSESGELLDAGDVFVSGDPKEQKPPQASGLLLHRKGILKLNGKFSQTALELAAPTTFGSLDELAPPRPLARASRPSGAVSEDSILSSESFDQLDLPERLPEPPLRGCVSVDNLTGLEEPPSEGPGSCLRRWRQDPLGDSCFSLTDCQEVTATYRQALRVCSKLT

[12] = biological target: FRK/PTK5 (Homo sapiens, UniProt P42685); conditions: 1 μM; Run 1, Run 2
[13] = biological target: T3, LCK2/ICK (Homo sapiens, UniProt Q9UPZ9); test: biochemical; conditions: read-out: % enzyme activity, 1 μM; Run 1, Run 2
T3 sequence (Q9UPZ9 1-632): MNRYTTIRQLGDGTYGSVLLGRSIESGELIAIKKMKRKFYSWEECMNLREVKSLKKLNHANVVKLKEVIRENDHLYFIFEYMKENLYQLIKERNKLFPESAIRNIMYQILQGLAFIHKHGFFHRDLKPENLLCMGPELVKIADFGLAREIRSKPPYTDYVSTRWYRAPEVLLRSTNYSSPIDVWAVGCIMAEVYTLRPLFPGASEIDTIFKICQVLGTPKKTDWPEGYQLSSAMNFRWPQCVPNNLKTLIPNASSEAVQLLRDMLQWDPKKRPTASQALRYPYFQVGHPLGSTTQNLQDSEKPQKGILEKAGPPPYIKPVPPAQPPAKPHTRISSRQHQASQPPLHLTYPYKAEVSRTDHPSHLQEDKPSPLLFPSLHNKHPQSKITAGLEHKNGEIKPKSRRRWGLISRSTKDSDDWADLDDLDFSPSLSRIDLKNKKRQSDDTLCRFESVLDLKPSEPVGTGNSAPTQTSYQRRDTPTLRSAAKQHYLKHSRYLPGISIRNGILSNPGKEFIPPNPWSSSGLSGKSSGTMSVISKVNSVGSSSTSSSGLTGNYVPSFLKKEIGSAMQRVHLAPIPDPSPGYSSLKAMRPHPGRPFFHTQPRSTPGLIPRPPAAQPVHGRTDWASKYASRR

[14] = biological target: BRK (Homo sapiens, UniProt Q13882); conditions: 1 μM; Run 1, Run 2
[15] = test system: ZAK/MLTK
[16] = biological target: PIM1 (Homo sapiens, UniProt P11309); test: biochemical; conditions: read-out: % enzyme activity, 1 μM; Run 1, Run 2
[17] = biological target: MLK4 (Homo sapiens, UniProt Q5TCX8); test: biochemical; conditions: read-out: % enzyme activity, 1 μM; Run 1, Run 2
[18] = test system: MNK2
[19] = biological target: CHK2 (Homo sapiens, UniProt O96017); conditions: 1 μM; Run 1, Run 2
[20] = biological target: STK21/CIT (Homo sapiens, UniProt O14578); conditions: 1 μM; Run 1, Run 2
STK21/CIT, sequence (O14578 whole entry): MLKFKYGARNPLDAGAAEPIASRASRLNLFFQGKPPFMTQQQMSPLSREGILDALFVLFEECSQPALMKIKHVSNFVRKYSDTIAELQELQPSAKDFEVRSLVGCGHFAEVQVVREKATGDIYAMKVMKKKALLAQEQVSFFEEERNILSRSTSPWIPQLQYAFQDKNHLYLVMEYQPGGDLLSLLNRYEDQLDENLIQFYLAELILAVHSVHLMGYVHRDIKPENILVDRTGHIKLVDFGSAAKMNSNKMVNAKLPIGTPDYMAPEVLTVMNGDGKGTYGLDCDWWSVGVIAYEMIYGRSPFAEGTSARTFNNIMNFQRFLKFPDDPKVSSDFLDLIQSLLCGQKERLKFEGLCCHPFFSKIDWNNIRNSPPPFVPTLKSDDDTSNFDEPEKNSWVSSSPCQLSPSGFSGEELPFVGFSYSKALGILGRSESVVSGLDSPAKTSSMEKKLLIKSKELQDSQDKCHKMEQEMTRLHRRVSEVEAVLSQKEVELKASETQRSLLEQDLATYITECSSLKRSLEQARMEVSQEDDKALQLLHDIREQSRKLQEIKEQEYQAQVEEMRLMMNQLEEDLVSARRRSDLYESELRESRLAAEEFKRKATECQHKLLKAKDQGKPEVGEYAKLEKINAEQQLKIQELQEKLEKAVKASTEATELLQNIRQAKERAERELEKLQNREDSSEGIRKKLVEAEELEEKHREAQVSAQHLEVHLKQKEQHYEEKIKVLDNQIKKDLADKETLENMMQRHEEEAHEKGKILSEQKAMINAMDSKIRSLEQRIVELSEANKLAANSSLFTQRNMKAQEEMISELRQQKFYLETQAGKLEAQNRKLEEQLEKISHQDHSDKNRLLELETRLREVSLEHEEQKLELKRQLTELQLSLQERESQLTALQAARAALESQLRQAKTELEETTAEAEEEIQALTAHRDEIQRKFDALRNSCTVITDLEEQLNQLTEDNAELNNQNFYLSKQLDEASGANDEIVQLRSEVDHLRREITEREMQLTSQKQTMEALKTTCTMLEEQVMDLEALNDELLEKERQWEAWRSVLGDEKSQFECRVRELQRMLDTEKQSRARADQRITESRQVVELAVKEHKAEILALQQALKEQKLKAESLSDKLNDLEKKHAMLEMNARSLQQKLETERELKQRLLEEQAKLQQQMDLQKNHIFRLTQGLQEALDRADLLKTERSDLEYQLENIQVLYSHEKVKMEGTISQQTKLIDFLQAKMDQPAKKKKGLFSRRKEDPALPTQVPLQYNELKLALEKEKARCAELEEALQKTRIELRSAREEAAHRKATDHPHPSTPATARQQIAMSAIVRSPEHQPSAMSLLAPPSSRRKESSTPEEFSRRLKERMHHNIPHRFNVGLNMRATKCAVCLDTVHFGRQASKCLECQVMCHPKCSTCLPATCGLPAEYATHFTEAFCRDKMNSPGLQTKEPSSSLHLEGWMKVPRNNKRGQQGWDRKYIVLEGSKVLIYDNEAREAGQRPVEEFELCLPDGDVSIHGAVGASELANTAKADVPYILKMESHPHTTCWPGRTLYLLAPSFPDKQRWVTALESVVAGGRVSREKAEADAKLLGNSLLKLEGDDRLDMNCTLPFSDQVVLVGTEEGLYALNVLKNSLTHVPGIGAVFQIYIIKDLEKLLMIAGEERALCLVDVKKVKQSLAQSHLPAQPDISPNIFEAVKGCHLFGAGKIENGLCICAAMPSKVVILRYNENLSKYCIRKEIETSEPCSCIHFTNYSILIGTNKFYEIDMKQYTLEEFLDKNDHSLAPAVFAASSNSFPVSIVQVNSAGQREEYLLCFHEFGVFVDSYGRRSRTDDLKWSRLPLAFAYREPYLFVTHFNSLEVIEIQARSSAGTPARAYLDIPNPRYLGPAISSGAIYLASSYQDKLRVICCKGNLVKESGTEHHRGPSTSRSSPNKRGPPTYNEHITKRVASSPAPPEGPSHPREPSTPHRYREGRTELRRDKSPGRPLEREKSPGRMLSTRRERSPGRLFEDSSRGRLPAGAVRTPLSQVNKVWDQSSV

T1 sequence (Q76MJ5 35-926): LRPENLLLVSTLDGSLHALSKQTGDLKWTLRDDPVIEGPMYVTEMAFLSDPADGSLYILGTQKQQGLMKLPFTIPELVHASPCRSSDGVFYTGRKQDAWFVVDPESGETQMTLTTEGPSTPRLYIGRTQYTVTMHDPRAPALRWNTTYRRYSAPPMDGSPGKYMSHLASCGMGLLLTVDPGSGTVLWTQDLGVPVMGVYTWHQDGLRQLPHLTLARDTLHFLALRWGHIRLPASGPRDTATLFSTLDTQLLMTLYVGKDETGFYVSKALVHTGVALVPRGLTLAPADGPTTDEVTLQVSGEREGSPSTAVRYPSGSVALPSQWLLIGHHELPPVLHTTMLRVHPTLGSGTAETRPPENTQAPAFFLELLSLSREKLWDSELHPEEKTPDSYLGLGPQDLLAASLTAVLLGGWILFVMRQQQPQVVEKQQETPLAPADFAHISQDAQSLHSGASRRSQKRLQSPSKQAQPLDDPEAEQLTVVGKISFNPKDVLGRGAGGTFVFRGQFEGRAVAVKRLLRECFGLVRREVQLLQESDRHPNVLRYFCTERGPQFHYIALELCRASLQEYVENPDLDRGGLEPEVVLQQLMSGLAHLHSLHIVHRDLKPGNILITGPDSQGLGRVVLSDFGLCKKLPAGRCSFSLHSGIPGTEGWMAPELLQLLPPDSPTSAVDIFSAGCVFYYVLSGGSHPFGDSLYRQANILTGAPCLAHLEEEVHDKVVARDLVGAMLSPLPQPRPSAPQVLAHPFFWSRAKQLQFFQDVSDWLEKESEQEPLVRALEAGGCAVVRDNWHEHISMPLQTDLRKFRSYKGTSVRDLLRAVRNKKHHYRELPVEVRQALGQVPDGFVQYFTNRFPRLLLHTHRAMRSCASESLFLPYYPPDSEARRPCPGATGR
CHK2, sequence (O96017 whole entry): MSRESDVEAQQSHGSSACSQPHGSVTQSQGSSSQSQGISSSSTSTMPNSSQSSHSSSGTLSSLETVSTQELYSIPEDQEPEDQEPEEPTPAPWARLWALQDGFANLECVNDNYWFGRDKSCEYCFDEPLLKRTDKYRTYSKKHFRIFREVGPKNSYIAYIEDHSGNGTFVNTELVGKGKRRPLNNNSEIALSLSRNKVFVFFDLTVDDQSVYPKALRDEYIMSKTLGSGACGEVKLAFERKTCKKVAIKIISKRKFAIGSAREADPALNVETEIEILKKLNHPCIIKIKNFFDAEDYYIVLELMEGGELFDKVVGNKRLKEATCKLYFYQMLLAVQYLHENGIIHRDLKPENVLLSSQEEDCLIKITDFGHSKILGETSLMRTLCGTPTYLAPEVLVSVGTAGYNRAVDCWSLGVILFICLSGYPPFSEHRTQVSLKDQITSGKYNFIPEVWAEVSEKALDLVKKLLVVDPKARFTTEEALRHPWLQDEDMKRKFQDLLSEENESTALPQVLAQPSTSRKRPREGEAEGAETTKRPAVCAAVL
PKAcg, sequence (P22612 whole entry): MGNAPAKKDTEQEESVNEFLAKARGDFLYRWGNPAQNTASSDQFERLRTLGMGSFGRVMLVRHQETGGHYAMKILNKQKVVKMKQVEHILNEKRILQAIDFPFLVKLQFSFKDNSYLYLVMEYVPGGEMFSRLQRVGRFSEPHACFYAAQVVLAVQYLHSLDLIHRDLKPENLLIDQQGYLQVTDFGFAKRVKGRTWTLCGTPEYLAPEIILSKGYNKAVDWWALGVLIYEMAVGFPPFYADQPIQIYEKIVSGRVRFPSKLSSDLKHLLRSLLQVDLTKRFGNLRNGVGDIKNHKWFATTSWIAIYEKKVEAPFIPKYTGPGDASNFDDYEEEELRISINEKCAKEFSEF
FRK/PTK5, sequence (P42685 whole entry): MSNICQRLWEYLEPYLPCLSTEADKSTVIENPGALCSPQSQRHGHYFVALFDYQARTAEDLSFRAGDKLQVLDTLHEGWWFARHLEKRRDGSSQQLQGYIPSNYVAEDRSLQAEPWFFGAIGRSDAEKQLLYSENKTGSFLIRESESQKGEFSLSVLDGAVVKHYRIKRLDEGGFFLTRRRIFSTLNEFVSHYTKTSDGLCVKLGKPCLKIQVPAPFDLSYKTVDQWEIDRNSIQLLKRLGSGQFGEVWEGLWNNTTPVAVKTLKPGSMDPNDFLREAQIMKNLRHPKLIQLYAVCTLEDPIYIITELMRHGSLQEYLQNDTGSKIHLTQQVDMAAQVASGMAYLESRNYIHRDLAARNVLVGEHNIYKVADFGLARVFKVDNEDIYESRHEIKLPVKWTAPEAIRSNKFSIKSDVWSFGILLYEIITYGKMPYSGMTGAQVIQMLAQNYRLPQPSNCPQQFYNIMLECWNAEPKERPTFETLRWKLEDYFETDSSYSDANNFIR
p70S6K/RPS6KB1, sequence (P23443 whole entry): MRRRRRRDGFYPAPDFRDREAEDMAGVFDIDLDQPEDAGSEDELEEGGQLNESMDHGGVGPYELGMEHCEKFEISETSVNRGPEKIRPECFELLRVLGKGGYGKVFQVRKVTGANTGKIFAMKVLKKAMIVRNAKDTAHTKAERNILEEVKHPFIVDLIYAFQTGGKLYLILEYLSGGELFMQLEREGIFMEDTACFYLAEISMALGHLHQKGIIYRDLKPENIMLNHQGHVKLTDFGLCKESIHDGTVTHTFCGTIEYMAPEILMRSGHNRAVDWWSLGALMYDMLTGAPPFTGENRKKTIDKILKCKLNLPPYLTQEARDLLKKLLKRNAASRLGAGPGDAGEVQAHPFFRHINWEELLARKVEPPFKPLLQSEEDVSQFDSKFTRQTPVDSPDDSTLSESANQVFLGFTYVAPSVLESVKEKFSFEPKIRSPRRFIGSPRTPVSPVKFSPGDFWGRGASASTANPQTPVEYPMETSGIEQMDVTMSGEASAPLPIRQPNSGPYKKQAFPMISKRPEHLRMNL

Compound	% enzyme activity [1] [%]	% enzyme activity [2] [%]	% enzyme activity [3] [%]	% enzyme activity [4] [%]	% enzyme activity [5] [%]	% enzyme activity [6] [%]	% enzyme activity at 1 μM [7]	remaining activity at 1 µM [8] [%]	CYP inhibition [9] [µM]	remaining activity at 1 µM [10] [%]	% enzyme activity [11] [%]	% enzyme activity [12] [%]	remaining activity at 1 µM [13] [%]	% enzyme activity [14] [%]	% enzyme activity at 1 μM [15]	remaining activity at 1 µM [16] [%]	remaining activity at 1 µM [17] [%]	% enzyme activity at 1 μM [18]	% enzyme activity [19] [%]	% enzyme activity [20] [%]
COc1cc(-c2cncc(-c3ccc(N4CCN(C)CC4)cc3)c2C)cc(F)c1C(N)=O [Compound 26a, 2-Fluoro-6-methoxy-4-(4-methyl-5-(4-(4-methylpiperazin-1-yl)phenyl)pyridin-3-yl)benzamide]	50.34	88.15	97.32	97.81	93.99	96.56	22% and 21%	97.5	> 50	97.8	93.71	95.48	108	58.28	31.3% and 30.9%	100	95.3	48.2%	99.41	84.42
COc1cc(-c2cncc(-c3ccc(N4C[C@@H](C)N(C)[C@@H](C)C4)cc3)c2C)cc(F)c1C(N)=O [Compound 26c, 2-Fluoro-6-methoxy-4-(4-methyl-5-(4-((3R,5S)-3,4,5-trimethylpiperazin-1-yl)phenyl)pyridin-3-yl)benzamide]	70.81	92.59	96.29	96.61	98.97	92.01	30.6% and 28.4%	98.9	> 50	100	94.38	95.52	97.5	73.52	46.6%	95.2	96.2	70.8% and 68.3%	101.19	84.97
